Test results as given in PubChem BioAssay (NCI).
Where “and” joins values, the source holds several entries; their conditions need not be identical. Identical values can stand only once.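 Method: 48-hour compound exposure of cells in 96-well plates, five concentrations, linear interpolation of endpoints. The concentration for 50% growth inhibition is given as GI50. Definition used: TGI = concentration required for complete inhibition of growth.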

Key:
Test in all cases: NCI tumour cell line growth inhibition, 48 h
RPMI-8226 leukemia = system: RPMI-8226 leukemia
HCC-2998 colon = system: HCC-2998 colon
MDA-MB-231 breast = system: MDA-MB-231 breast
A549 NSCLC = system: A549 NSCLC
BT-549 breast = system: BT-549 breast
RXF 393 renal = system: RXF 393 renal
OVCAR-8 ovarian = system: OVCAR-8 ovarian
IGROV1 ovarian = system: IGROV1 ovarian
SF-539 CNS = system: SF-539 CNS
NCI/ADR-RES ovarian = system: NCI/ADR-RES ovarian
OVCAR-5 ovarian = system: OVCAR-5 ovarian
SW-620 colon = system: SW-620 colon
HOP-92 NSCLC = system: HOP-92 NSCLC
NCI-H522 lung = system: NCI-H522 lung
KM12 colon = system: KM12 colon
OVCAR-3 ovarian = system: OVCAR-3 ovarian
SNB-75 CNS = system: SNB-75 CNS
HL-60(TB) leukemia = system: HL-60(TB) leukemia

| SMILES | TGI (RPMI-8226 leukemia) | TGI (HCC-2998 colon) | TGI (MDA-MB-231 breast) | TGI (A549 NSCLC) | TGI (BT-549 breast) | TGI (RXF 393 renal) | TGI (OVCAR-8 ovarian) | TGI (IGROV1 ovarian) | TGI (SF-539 CNS) | TGI (NCI/ADR-RES ovarian) | TGI (OVCAR-5 ovarian) | TGI (SW-620 colon) | TGI (HOP-92 NSCLC) | TGI (NCI-H522 lung) | TGI (KM12 colon) | TGI (OVCAR-3 ovarian) | TGI (SNB-75 CNS) | TGI (HL-60(TB) leukemia) | GI50 (HCC-2998 colon) |
| --- | --- | --- | --- | --- | --- | --- | --- | --- | --- | --- | --- | --- | --- | --- | --- | --- | --- | --- | --- |
| COc1ncnc2c1cnn2Cc1cn(CCCCO)nn1 | > 100 µM | > 100 µM | > 100 µM | > 100 µM | > 100 µM | > 100 µM | > 100 µM | > 100 µM | > 100 µM | > 100 µM | > 100 µM | > 100 µM | > 100 µM | > 100 µM | > 100 µM | > 100 µM | – | – | – |
| Nc1c(N2CCCCC2)c(=O)nc2[nH]/c(=C\c3ccccc3)c(=O)n12 | > 100 µM | > 100 µM | > 100 µM | > 100 µM | – | > 100 µM | > 100 µM | > 100 µM | > 100 µM | > 100 µM | > 100 µM | > 100 µM | > 100 µM | > 100 µM | > 100 µM | – | > 100 µM | > 100 µM | – |
| O=C1/C(=C/c2cccs2)NC(=S)N1CN1CCCC(CO)C1 (stereo unspecified) | > 100 µM | – | > 100 µM | > 100 µM | – | – | > 100 µM | > 100 µM | – | > 100 µM | > 100 µM | > 100 µM | > 100 µM | – | > 100 µM | > 100 µM | > 100 µM | – | – |
| CCOC(=O)c1[nH]c2nc(SC)nc(Nc3ccccc3Cl)c2c1N | 43.5 µM | > 100 µM | 59.3 µM | 44.8 µM | 82.1 µM | 30.2 µM | 36.5 µM | 86.2 µM | – | 73.3 µM | > 100 µM | > 100 µM | – | 53.4 µM | > 100 µM | 75.4 µM | 38.4 µM | – | – |
| O=C(O)CCC(NC(=O)c1ccc(CNc2nc3ccccc3nc2C(=O)O)cc1)C(=O)O (stereo unspecified) | > 100 µM | – | > 100 µM | > 100 µM | – | – | > 100 µM | > 100 µM | – | > 100 µM | > 100 µM | > 100 µM | – | – | > 100 µM | > 100 µM | > 100 µM | – | – |
| CC1=NN(C(=O)c2ccc(Cl)cc2)C(=O)/C1=C/c1ccco1 | > 100 µM | > 100 µM | – | > 100 µM | – | > 100 µM | > 100 µM | > 100 µM | > 100 µM | – | > 100 µM | > 100 µM | > 100 µM | > 100 µM | > 100 µM | > 100 µM | – | > 100 µM | – |
| CC(=O)N=C1N(/C=C2\C(=O)Oc3ccccc3C2=O)C(=O)/C(=C/c2ccccc2Cl)N1C | > 100 µM | > 100 µM | > 100 µM | > 100 µM | – | > 100 µM | > 100 µM | > 100 µM | > 100 µM | > 100 µM | > 100 µM | > 100 µM | – | > 100 µM | > 100 µM | – | > 100 µM | > 100 µM | – |
| C=C1CC(COc2ccc3c(C)cc(=O)oc3c2)(c2ccccc2)OC1=O (stereo unspecified) | 1.62 µM | 10.1 µM | 9.07 µM | 25 µM | 3.18 µM | – | 5.57 µM | 3.57 µM | 5.05 µM | 16.6 µM | 24.5 µM | 2.31 µM | 1.56 µM | 3.37 µM | > 27.7 µM | 5.59 µM | 19.2 µM | – | – |
| O=[N+]([O-])c1sc2ccc(Cl)cc2c1Nc1ccc(Cl)cc1 | > 100 µM | > 100 µM | > 100 µM | > 100 µM | > 100 µM | > 100 µM | > 100 µM | > 100 µM | > 100 µM | > 100 µM | > 100 µM | > 100 µM | – | > 100 µM | > 100 µM | > 100 µM | > 100 µM | > 100 µM | – |
| N#Cc1c(-c2ccccc2)c(C#N)c(=O)n(C2OC(CO)C(O)C(O)C2O)c1S (stereo unspecified) | > 100 µM | > 100 µM | > 100 µM | > 100 µM | > 100 µM | > 100 µM | > 100 µM | > 100 µM | > 100 µM | > 100 µM | > 100 µM | > 100 µM | – | > 100 µM | > 100 µM | > 100 µM | > 100 µM | > 100 µM | > 100 µM and 40.4 µM |
| CC(=O)Oc1c2oc3cc(O)c(O)cc3c2c(OC(C)=O)c2oc3cc(O)c(O)cc3c12 | – | 40.7 µM | – | > 100 µM | 31.1 µM | 32.6 µM | 50.2 µM | 91.1 µM | 53.3 µM | 86.7 µM | 56.3 µM | > 100 µM | – | 35.8 µM | 44.4 µM | – | 57.6 µM | 13 µM | – |
| Cc1ccc(C)n1-n1c(-c2ccccc2)n[nH]c1=O | > 100 µM | > 100 µM | > 100 µM | > 100 µM | > 100 µM | > 100 µM | > 100 µM | > 100 µM | – | > 100 µM | > 100 µM | > 100 µM | – | > 100 µM | > 100 µM | > 100 µM | > 100 µM | – | – |
| CCC1=NC(C(F)(F)F)(C(F)(F)F)N=C(/N=C(/N)N(C)C(C(C)C)P(=O)(OC(C)C)OC(C)C)O1 (stereo unspecified) | > 100 µM | > 100 µM | > 100 µM | > 100 µM | > 100 µM | > 100 µM | > 100 µM | > 100 µM | > 100 µM | > 100 µM | > 100 µM | > 100 µM | – | > 100 µM | > 100 µM | > 100 µM | > 100 µM | > 100 µM | – |
| CC(=O)O[C@@H]1O[Si](C(C)(C)C)(C(C)(C)C)[C@H](C)[C@H]1C | > 100 µM | > 100 µM | > 100 µM | > 100 µM | > 100 µM | – | > 100 µM | > 100 µM | > 100 µM | > 100 µM | > 100 µM | > 100 µM | – | > 100 µM | > 100 µM | > 100 µM | > 100 µM | 44 µM | – |
| CCOC(=O)NC(=S)c1ccc(O)c2ccccc12 | > 100 µM | > 100 µM | – | > 100 µM | 95.2 µM | – | > 100 µM | 49.1 µM | > 100 µM | > 100 µM | > 100 µM | > 100 µM | – | > 100 µM | > 100 µM | > 100 µM | – | 39.9 µM | – |
